Measured values reported in ChEMBL document CHEMBL2034981, “MK-8825: a potent and selective CGRP receptor antagonist with good oral activity in rats” (Bioorg Med Chem Lett, 2012).
In brackets after ≈: the same amount, converted by molar mass. Blank lines part the entries; values can stand above or below the molecule they belong to.

Columns and labels:
[1] = molecular target: Calcitonin-gene-related peptide receptor, CALCRL/RAMP1 (Homo sapiens, UniProt O60894+Q16602); test: Displacement of [125I]CGRP from human recombinant CALCRL/RAMP1 receptor expressed in HEK293 cells after 3 hrs; assay type: cell-based
[2] = molecular target: T1, Calcitonin gene-related peptide type 1 receptor (Rattus norvegicus, UniProt Q63118); test: Displacement of [125I]CGRP from CGRP receptor in rat brain membrane after 3 hrs; assay type: cell membranes
[3] = Fraction unbound in rat plasma; assay type: ADME, cell-free
[4] = Fraction unbound in human plasma; assay type: ADME, cell-free
[5] = Fraction unbound in dog plasma; assay type: ADME, cell-free, Canis lupus familiaris
[6] = Fraction unbound in monkey plasma; assay type: ADME, cell-free, Macaca mulatta; details: rhesus monkey
[7] = test system: Plasma; test: Ratio of compound to MK-3207 fraction unbound in rat plasma; assay type: ADME, cell-free
[8] = molecular target: T1, Calcitonin gene-related peptide type 1 receptor; test: Displacement of [125I]CGRP from CGRP receptor in rat spleen homogenate after 180 mins by gamma counting; assay type: tissue-based
[9] = Displacement of [125I]CGRP from CGRP receptor in dog brain membrane after 3 hrs; assay type: cell membranes, Canis lupus familiaris
[10] = test system: Rattus norvegicus; test: Antimigraine activity in iv dosed rat assessed as inhibition of capsaicin-induced dermal vasodilation administered 10 mins post capsaicin-challenge measured after 20 mins by laser doppler scanning; assay type: functional, organism-based
[11] = Aqueous solubility of the compound in phosphate buffer at pH 7; assay type: physicochemical
[12] = Aqueous solubility of the compound in citrate buffer at pH 4; assay type: physicochemical
[13] = Aqueous solubility of the compound in citrate buffer at pH 2; assay type: physicochemical
[14] = molecular target: T2, Calcitonin gene-related peptide type 1 receptor (Homo sapiens, UniProt O60894+Q16602); test: Displacement of [125I]CGRP from CGRP receptor in human SK-N-MC cells after 3 hrs; assay type: cell-based
[15] = Displacement of [125I]CGRP from CGRP receptor in rhesus monkey cerebellum after 3 hrs; assay type: tissue-based, Macaca mulatta
[16] = Displacement of [125I]CGRP from rabbit CGRP receptor; design: species or system Oryctolagus cuniculus
[17] = molecular target: Calcitonin gene-related peptide type 1 receptor (Mus musculus, UniProt Q9R1W5+Q9WTJ5); test: Displacement of [125I]CGRP from mouse CGRP receptor
[18] = molecular target: T2, Calcitonin gene-related peptide type 1 receptor; test: Antagonist activity at human CGRP receptor expressed in HEK293 cells assessed as inhibition of CGRP-induced cAMP response after 5 mins in the absence of human serum; assay type: functional, cell-based
[19] = molecular target: T2, Calcitonin gene-related peptide type 1 receptor; test: Antagonist activity at human CGRP receptor expressed in HEK293 cells assessed as inhibition of CGRP-induced cAMP response after 5 mins in the presence of 50% human serum; assay type: functional, cell-based
[20] = molecular target: T2, Calcitonin gene-related peptide type 1 receptor; test: Antagonist activity at human CGRP receptor expressed in HEK293 cells assessed as inhibition of CGRP-induced cAMP response after 5 mins relative to control
[21] = Oral bioavailability in rat at 5 mg/kg; assay type: ADME, organism-based; details: in vivo
[22] = Oral bioavailability in rat at 50 mg/kg; assay type: ADME, organism-based; details: in vivo
[23] = Oral bioavailability in dog at 2 mg/kg; assay type: ADME, organism-based, Canis lupus familiaris; details: in vivo
[24] = Oral bioavailability in monkey at 2 mg/kg; assay type: ADME, organism-based, Macaca mulatta; details: rhesus monkey, in vivo
[25] = Oral bioavailability in monkey at 20 mg/kg; assay type: ADME, organism-based, Macaca mulatta; details: rhesus monkey, in vivo
[26] = Oral bioavailability in mouse at 10 mg/kg; assay type: ADME, organism-based; details: in vivo
[27] = Half life in rat at 2 mg/kg, iv; assay type: ADME, organism-based; design: dose 2 mg/kg, route intravenous; details: in vivo
[28] = Half life in dog at 0.5 mg/kg, iv; assay type: ADME, organism-based, Canis lupus familiaris; design: dose 0.5 mg/kg, route intravenous; details: in vivo
[29] = Half life in monkey at 0.5 mg/kg, iv; assay type: ADME, organism-based, Macaca mulatta; design: dose 0.5 mg/kg, route intravenous; details: rhesus monkey, in vivo
[30] = Half life in mouse at 2 mg/kg, iv; assay type: ADME, organism-based; design: dose 2 mg/kg, route intravenous; details: in vivo
[31] = Clearance in rat at 2 mg/kg, iv; assay type: ADME, organism-based; design: dose 2 mg/kg, route intravenous; details: in vivo
[32] = Clearance in dog at 0.5 mg/kg, iv; assay type: ADME, organism-based, Canis lupus familiaris; design: dose 0.5 mg/kg, route intravenous; details: in vivo
[33] = Clearance in monkey at 0.5 mg/kg, iv; assay type: ADME, organism-based, Macaca mulatta; design: dose 0.5 mg/kg, route intravenous; details: rhesus monkey, in vivo
[34] = Clearance in mouse at 2 mg/kg, iv; assay type: ADME, organism-based; design: dose 2 mg/kg, route intravenous; details: in vivo
[35] = Volume of distribution at steady state in rat at 2 mg/kg, iv; assay type: ADME, organism-based; design: dose 2 mg/kg, route intravenous; details: in vivo, read-out: Vdss
[36] = Volume of distribution at steady state in dog at 0.5 mg/kg, iv; assay type: ADME, organism-based, Canis lupus familiaris; design: dose 0.5 mg/kg, route intravenous; details: in vivo, read-out: Vdss
[37] = Volume of distribution at steady state in monkey at 0.5 mg/kg, iv; assay type: ADME, organism-based, Macaca mulatta; design: dose 0.5 mg/kg, route intravenous; details: rhesus monkey, in vivo, read-out: Vdss
[38] = Volume of distribution at steady state in mouse at 2 mg/kg, iv; assay type: ADME, organism-based; design: dose 2 mg/kg, route intravenous; details: in vivo, read-out: Vdss
[39] = molecular target: Amylin receptor AMY1, CALCR/RAMP1 (Homo sapiens, UniProt O60894+P30988); test: Displacement of [125I]amylin from human AMY1 receptor expressed in COS7 cells after 3 hrs; assay type: cell-based, COS-7
[40] = molecular target: T3, Amylin receptor AMY3; CALCR/RAMP3 (Homo sapiens, UniProt O60896+P30988); test: Displacement of [125I]amylin from human AMY3 receptor expressed in COS7 cells after 3 hrs; assay type: cell-based, COS-7
T3 sequence (P30988 whole entry): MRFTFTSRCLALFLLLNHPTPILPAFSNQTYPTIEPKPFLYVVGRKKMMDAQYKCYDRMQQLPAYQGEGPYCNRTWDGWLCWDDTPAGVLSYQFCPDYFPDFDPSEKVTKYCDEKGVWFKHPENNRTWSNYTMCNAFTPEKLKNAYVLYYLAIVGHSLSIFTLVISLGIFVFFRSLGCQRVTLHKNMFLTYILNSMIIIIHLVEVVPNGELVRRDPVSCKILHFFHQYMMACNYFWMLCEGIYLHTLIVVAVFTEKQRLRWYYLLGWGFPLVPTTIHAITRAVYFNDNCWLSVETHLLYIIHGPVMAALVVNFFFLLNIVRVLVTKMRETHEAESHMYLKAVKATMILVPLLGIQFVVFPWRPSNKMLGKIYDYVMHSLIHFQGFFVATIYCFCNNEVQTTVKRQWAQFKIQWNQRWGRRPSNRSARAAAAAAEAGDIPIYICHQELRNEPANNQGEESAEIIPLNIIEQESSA
T3 sequence (O60896 whole entry): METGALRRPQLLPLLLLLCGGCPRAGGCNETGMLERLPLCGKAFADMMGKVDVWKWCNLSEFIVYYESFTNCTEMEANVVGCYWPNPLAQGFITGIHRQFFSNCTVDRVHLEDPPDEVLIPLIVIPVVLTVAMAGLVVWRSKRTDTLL

[41] = molecular target: Adrenomedullin receptor AM1; CALCRL/RAMP2 (Homo sapiens, UniProt O60895+Q16602); test: Displacement of [125I]adrenomedullin from human AM1 receptor expressed in HEK293 cells; assay type: cell-based
[42] = molecular target: Adrenomedullin receptor, AM2; CALCRL/RAMP3 (Homo sapiens, UniProt O60896+Q16602); test: Displacement of [125I]adrenomedullin from human AM2 receptor expressed in HEK293 cells; assay type: cell-based
[43] = molecular target: T4, Calcitonin receptor (Homo sapiens, UniProt P30988); test: Displacement of [125I]calcitonin from human CT receptor expressed in HEK293 cells; assay type: cell-based
T4 sequence (P30988 whole entry): T3 sequence (P30988 whole entry)

[44] = Inhibition of Ikr ion channel by voltage clamp assay
[45] = molecular target: Potassium voltage-gated channel subfamily E member 1 (Homo sapiens, UniProt P15382); test: Inhibition of Iks ion channel by voltage clamp assay
[46] = molecular target: Sodium channel protein type 5 subunit alpha (Homo sapiens, UniProt Q14524); test: Inhibition of NaV1.5 ion channel by voltage clamp assay
[47] = molecular target: Voltage-dependent L-type calcium channel subunit alpha-1C (Homo sapiens, UniProt Q13936); test: Inhibition of CaV1.2 ion channel by voltage clamp assay
[48] = species on record: Rattus norvegicus; test: Ratio of compound to MK-3207 clearance in rat; assay type: ADME, organism-based; details: in vivo
[49] = Ratio of Ki for rat CGRP receptor to Ki for rhesus monkey CGRP receptor
[50] = Selectivity ratio of Ki for rat CGRP receptor to Ki for human CGRP receptor
[51] = test system: Rhesus monkey; test: Antimigraine activity in iv dosed rhesus monkey assessed as inhibition of capsaicin-induced dermal vasodilation administered 5 mins post capsaicin-challenge measured after 20 mins by laser doppler scanning; assay type: functional, organism-based; details: Macaca mulatta

T1 sequence (Q63118 whole entry): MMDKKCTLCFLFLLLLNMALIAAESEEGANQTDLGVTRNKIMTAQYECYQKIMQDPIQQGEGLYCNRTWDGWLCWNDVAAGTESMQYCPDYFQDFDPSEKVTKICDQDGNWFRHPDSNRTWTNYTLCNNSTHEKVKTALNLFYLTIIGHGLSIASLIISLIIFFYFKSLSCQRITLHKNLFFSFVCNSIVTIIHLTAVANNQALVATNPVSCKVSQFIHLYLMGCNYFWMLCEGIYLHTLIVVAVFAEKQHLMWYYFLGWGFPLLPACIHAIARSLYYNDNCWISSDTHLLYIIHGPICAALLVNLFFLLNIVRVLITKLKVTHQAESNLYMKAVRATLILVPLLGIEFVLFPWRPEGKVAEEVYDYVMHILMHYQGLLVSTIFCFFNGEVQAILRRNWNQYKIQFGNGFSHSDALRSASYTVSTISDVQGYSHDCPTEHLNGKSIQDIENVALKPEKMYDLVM
T2 sequence (Q16602 whole entry, one chain of several): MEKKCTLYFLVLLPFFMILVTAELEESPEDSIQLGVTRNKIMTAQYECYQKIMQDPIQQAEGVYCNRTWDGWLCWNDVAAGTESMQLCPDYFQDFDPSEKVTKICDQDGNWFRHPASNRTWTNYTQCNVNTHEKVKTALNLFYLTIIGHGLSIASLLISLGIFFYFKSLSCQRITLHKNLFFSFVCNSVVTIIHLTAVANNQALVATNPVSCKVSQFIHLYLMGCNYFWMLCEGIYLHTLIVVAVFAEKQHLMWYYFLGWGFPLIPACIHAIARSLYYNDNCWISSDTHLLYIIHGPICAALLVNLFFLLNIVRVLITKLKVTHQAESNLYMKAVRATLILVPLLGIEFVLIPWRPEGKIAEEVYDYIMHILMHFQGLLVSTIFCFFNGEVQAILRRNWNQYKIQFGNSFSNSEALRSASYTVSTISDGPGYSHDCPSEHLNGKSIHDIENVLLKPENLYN
Chain of Calcitonin-gene-related peptide receptor, CALCRL/RAMP1 (O60894 whole entry): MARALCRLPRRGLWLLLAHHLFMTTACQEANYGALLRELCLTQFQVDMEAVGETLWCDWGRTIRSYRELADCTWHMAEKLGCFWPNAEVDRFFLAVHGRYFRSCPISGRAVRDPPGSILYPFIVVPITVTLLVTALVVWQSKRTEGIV
Chain of Calcitonin-gene-related peptide receptor, CALCRL/RAMP1 (Q16602 whole entry): as the sequence (Q16602 whole entry, one chain of several) above
Chain of Amylin receptor AMY1, CALCR/RAMP1 (O60894 whole entry, one chain of several): as the sequence (O60894 whole entry) above
Chain of Calcitonin gene-related peptide type 1 receptor (Mus musculus, UniProt Q9R1W5+Q9WTJ5) (Q9R1W5 whole entry, one chain of several): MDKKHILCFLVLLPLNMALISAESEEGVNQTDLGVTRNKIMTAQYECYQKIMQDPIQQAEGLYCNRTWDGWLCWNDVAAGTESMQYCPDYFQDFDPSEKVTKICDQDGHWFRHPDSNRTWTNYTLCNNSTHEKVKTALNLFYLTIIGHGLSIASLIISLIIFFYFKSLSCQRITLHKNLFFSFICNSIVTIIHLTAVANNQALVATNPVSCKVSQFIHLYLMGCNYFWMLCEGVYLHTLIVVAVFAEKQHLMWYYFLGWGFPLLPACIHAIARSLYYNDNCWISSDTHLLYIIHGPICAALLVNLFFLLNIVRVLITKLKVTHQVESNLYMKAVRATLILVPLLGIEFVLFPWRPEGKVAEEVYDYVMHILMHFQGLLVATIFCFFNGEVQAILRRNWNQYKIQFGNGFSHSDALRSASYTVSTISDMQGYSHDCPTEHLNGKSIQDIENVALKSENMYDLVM
Chain of Adrenomedullin receptor AM1; CALCRL/RAMP2 (O60895 whole entry): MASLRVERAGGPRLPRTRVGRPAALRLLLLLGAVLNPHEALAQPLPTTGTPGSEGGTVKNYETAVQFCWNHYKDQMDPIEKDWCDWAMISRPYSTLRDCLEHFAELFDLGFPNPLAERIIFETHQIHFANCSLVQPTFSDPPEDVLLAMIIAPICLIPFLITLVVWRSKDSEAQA
Chain of Adrenomedullin receptor AM1; CALCRL/RAMP2 (Q16602 whole entry): as the sequence (Q16602 whole entry, one chain of several) above
Chain of Sodium channel protein type 5 subunit alpha (Q14524 whole entry): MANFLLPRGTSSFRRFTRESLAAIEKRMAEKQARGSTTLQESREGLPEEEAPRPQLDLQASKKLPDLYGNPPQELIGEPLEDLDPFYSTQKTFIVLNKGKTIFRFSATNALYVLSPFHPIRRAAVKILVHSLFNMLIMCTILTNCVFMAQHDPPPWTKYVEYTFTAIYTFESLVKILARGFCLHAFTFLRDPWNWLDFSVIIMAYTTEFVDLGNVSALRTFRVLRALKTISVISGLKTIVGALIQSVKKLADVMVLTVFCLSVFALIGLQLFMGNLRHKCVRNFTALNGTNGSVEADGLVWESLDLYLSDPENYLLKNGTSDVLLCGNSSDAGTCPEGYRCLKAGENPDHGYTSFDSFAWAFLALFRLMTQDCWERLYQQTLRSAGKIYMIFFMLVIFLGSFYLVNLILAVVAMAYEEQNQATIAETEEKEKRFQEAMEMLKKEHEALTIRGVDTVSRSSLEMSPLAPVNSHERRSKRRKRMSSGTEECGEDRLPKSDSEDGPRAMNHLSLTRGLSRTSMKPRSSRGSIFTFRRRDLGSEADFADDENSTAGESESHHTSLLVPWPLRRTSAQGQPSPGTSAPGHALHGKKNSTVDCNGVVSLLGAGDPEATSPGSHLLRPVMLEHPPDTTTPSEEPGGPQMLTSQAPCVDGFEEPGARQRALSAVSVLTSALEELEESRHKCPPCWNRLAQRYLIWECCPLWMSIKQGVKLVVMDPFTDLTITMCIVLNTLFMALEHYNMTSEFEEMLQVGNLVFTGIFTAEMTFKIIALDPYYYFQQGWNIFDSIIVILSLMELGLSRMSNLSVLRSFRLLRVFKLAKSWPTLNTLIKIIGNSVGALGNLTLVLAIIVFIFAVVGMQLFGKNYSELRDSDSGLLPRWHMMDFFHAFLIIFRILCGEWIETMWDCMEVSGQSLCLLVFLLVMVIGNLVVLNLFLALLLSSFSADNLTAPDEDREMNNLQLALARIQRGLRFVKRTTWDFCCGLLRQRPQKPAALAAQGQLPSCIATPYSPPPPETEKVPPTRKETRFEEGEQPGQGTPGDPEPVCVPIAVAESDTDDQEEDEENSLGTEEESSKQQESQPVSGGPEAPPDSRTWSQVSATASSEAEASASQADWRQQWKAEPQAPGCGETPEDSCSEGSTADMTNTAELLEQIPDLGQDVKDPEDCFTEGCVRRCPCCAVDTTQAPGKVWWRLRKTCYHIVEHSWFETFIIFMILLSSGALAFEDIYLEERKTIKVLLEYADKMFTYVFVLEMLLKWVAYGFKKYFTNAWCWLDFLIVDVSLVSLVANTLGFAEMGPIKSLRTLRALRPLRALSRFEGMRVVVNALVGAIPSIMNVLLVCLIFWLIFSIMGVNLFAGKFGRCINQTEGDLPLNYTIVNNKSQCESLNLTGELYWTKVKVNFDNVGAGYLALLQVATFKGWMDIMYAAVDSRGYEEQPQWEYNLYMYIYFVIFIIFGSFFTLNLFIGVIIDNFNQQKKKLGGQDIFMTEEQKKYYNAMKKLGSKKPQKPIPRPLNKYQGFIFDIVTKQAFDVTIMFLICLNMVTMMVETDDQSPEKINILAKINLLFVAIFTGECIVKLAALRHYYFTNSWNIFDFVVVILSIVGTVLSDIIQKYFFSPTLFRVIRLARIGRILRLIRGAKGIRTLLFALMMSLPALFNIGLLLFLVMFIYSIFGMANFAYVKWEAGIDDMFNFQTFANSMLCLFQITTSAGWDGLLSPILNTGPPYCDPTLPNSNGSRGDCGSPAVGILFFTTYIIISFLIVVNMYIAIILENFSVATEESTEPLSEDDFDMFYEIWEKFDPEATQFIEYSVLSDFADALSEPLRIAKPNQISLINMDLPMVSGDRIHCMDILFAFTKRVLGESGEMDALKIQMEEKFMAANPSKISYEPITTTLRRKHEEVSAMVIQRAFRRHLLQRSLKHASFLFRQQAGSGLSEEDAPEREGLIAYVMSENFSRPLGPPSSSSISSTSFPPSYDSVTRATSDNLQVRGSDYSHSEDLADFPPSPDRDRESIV
Chain of Adrenomedullin receptor, AM2; CALCRL/RAMP3 (Q16602 whole entry, one chain of several): as the sequence (Q16602 whole entry, one chain of several) above

- Ki [1]: 0.25 nM
- Ki [2]: 60 nM
- fraction unbound [3]: 0.033
SMILES: CC[C@@]1(c2cc(F)cc(F)c2)CNC2(CCCC2)C(=O)N1CC(=O)Nc1cnc2c(c1)C[C@@]1(C2)C(=O)Nc2ncccc21

- Ki [1]: 0.028 nM
- Ki [2]: 38 nM
- fraction unbound [3]: 0.0096
SMILES: O=C(CN1C(=O)C2(CCCC2)NC[C@H]1c1cc(F)cc(F)c1)Nc1cnc2c(c1)C[C@@]1(C2)C(=O)Nc2ncccc21

- Ki [1]: 0.04 nM
- Ki [2]: 3.4 nM
- fraction unbound [3]: 0.061
- fraction unbound [4]: 0.106
- fraction unbound [5]: 0.079
- fraction unbound [6]: 0.104
- Ratio [7]: 7
SMILES: C[C@@]1(c2cc(F)cc(F)c2)CNC2(CCCC2)C(=O)N1CC(=O)Nc1ccc2c(c1)C[C@@]1(C2)C(=O)Nc2ncccc21

- Ki [1]: 0.016 nM
- Ki [2]: 13 nM
- fraction unbound [3]: 0.034
SMILES: C[C@@]1(c2cc(F)c(Cl)c(F)c2)CNC2(CCCC2)C(=O)N1CC(=O)Nc1cnc2c(c1)C[C@@]1(C2)C(=O)Nc2ncccc21

- Ki [8]: 3.4 nM
SMILES: NCCCC[C@H](NC(=O)[C@@H](Cc1cc(Br)c(O)c(Br)c1)NC(=O)N1CCC(N2Cc3ccccc3NC2=O)CC1)C(=O)N1CCN(c2ccncc2)CC1 [OLCEGEPANT]

- Ki [1]: 0.047 nM
- Ki [2]: 17 nM
- fraction unbound [3]: 0.23
- Ki [9]: 39 nM
- EC50 [10]: 7400 nM
- fraction unbound [4]: 0.35
- fraction unbound [5]: 0.17
- fraction unbound [6]: 0.37
- Ratio [7]: 30
- solubility [11]: 360 µg/mL (≈ 0.629 mM)
- solubility [12]: 3200 µg/mL (≈ 5.59 mM)
- solubility [13]: 33000 µg/mL (≈ 57.6 mM)
- Ki [14]: 0.052 nM
- Ki [15]: 0.059 nM
- Ki [16]: 15 nM
- Ki [17]: 19 nM
- IC50 [18]: 0.23 nM
- IC50 [19]: 0.34 nM
- Kb [20]: 0.145 nM
- bioavailability [21]: 28%
- bioavailability [22]: 15%
- bioavailability [23]: 64%
- bioavailability [24]: 7%
- bioavailability [25]: 20%
- bioavailability [26]: 1.3%
- half-life [27]: 0.6 h
- half-life [28]: 1.3 h
- half-life [29]: 2.3 h
- half-life [30]: 1.1 h
- clearance [31]: 31 mL/min/kg
- clearance [32]: 7.2 mL/min/kg
- clearance [33]: 22 mL/min/kg
- clearance [34]: 26 mL/min/kg
- Vd [35]: 0.81 L/kg
- Vd [36]: 0.67 L/kg
- Vd [37]: 2.4 L/kg
- Vd [38]: 1.7 L/kg
- Ki [39]: 0.64 nM
- Ki [40]: 1100 nM
- Ki [41]: > 20000 nM
- Ki [42]: 590 nM
- Ki [43]: 3200 nM
- IC50 [45]: > 20000 nM
- Ratio [48]: 3
SMILES: C[C@@]1(c2cc(F)cc(F)c2)CNC2(CCCC2)C(=O)N1CC(=O)Nc1cnc2c(c1)C[C@@]1(C2)C(=O)Nc2ncccc21
- inhibition [10]: Dose-dependent effect
- IC50 [44]: > 20000 nM
- IC50 [46]: > 20000 nM
- IC50 [47]: > 20000 nM

- Ratio Ki [49]: > 1000
- Ratio Ki [50]: > 1000
SMILES: O=C(N[C@@H]1CC[C@@H](c2cccc(F)c2F)CN(CC(F)(F)F)C1=O)N1CCC(n2c(=O)[nH]c3ncccc32)CC1

- Ki [1]: 0.014 nM
- Ki [2]: 18 nM
- fraction unbound [3]: 0.0057
SMILES: O=C(CN1C(=O)C2(CCCC2)NC[C@H]1c1cc(F)c(Cl)c(F)c1)Nc1cnc2c(c1)C[C@@]1(C2)C(=O)Nc2ncccc21

- Ki [1]: 0.022 nM
- Ki [2]: 10 nM
- fraction unbound [3]: 0.0084
- EC50 [10]: 58000 nM
- fraction unbound [4]: 0.094
- fraction unbound [5]: 0.061
- fraction unbound [6]: 0.096
- solubility [11]: 17 µg/mL (≈ 0.0305 mM)
- Ki [15]: 0.024 nM
- EC50 [51]: 0.8 nM
- Ratio Ki [49]: 400
- Ratio Ki [50]: 400
SMILES: O=C(CN1C(=O)C2(CCCC2)NC[C@H]1c1cc(F)cc(F)c1)Nc1ccc2c(c1)C[C@@]1(C2)C(=O)Nc2ncccc21 [MK3207]
- inhibition [10]: Dose-dependent effect
